# ChEMBL document CHEMBL2429721, “Novel 2,6-bis(4-methoxyphenyl)-1-methylpiperidin-4-one oxime esters: synthesis and a new insight into their antioxidant and antimicrobial potential” (Med Chem Res, 2013)
# Experiments:
# Type in all cases: functional
# [1] = Antifungal activity against Chrysosporium keratinophilum MTCC 2827 assessed as growth inhibition at 500 ug/mL after 72 hrs by agar well plate method
# [2] = system: Pseudomonas aeruginosa; test: Antibacterial activity against Pseudomonas aeruginosa ATCC 27853 assessed as growth inhibition at 500 ug/mL after 24 hrs by agar well plate method; settings: ATCC 27853, 24 h, read-out: DIZ
# [3] = system: Candida albicans; test: Antifungal activity against Candida albicans MTCC 3017 assessed as growth inhibition at 1000 ug/mL after 72 hrs by agar well plate method; settings: MTCC 3017, 72 h, read-out: DIZ
# [4] = system: Escherichia coli; test: Antibacterial activity against Escherichia coli ATCC 25922 assessed as growth inhibition at 1000 ug/mL after 24 hrs by agar well plate method; settings: ATCC 25922, 24 h, read-out: DIZ
# [5] = system: Pseudomonas aeruginosa; test: Antibacterial activity against Pseudomonas aeruginosa ATCC 27853 assessed as growth inhibition at 1000 ug/mL after 24 hrs by agar well plate method; settings: ATCC 27853, 24 h, read-out: DIZ
# [6] = Antioxidant activity assessed as cupric ion reducing activity at 10 uM after 30 mins by CUPRAC assay
# [7] = Antioxidant activity assessed as ABTS free radical scavenging activity after 30 mins
# [8] = system: Staphylococcus aureus; test: Antibacterial activity against Staphylococcus aureus ATCC 25923 assessed as growth inhibition at 500 ug/mL after 24 hrs by agar well plate method; settings: ATCC 25923, 24 h, read-out: DIZ
# [9] = Antifungal activity against Chrysosporium keratinophilum MTCC 2827 assessed as growth inhibition at 1000 ug/mL after 72 hrs by agar well plate method
# [10] = system: Staphylococcus aureus; test: Antibacterial activity against Staphylococcus aureus ATCC 25923 assessed as growth inhibition at 1000 ug/mL after 24 hrs by agar well plate method; settings: ATCC 25923, 24 h, read-out: DIZ
# [11] = system: Radical scavenging activity; test: Antioxidant activity assessed as DPPH free radical scavenging activity after 20 mins by UV-visible spectrophotometric analysis
# [12] = system: Aspergillus flavus; test: Antifungal activity against Aspergillus flavus MTCC 3306 assessed as growth inhibition at 500 ug/mL after 72 hrs by agar well plate method; settings: MTCC 3306, 72 h, read-out: DIZ
# [13] = system: Escherichia coli; test: Antibacterial activity against Escherichia coli ATCC 25922 assessed as growth inhibition at 500 ug/mL after 24 hrs by agar well plate method; settings: ATCC 25922, 24 h, read-out: DIZ
# [14] = system: Candida albicans; test: Antifungal activity against Candida albicans MTCC 3017 assessed as growth inhibition at 500 ug/mL after 72 hrs by agar well plate method; settings: MTCC 3017, 72 h, read-out: DIZ
# [15] = system: Aspergillus flavus; test: Antifungal activity against Aspergillus flavus MTCC 3306 assessed as growth inhibition at 1000 ug/mL after 72 hrs by agar well plate method; settings: MTCC 3306, 72 h, read-out: DIZ
# [16] = Antioxidant activity assessed as ferric ion reducing activity at 10 uM after 20 mins by FRAP assay
Compound,inhibition zone (IZ) [1],zone of inhibition at 500 µg/mL [2],zone of inhibition at 1000 µg/mL [3],zone of inhibition at 1000 µg/mL [4],zone of inhibition at 1000 µg/mL [5],Activity [6],IC50 [7],zone of inhibition at 500 µg/mL [8],inhibition zone (IZ) [9],zone of inhibition at 1000 µg/mL [10],IC50 [11],zone of inhibition at 500 µg/mL [12],zone of inhibition at 500 µg/mL [13],zone of inhibition at 500 µg/mL [14],zone of inhibition at 1000 µg/mL [15],Activity [16]
COc1ccc(C2CC(=NOC(=O)c3cc(O)cc(O)c3)CC(c3ccc(OC)cc3)N2C)cc1 (configuration not stated),1 mm,4 mm,3 mm,3 mm,5 mm,0.363,19 µM,4 mm,0 mm,4 mm,12 µM,0 mm,4 mm,3 mm,1 mm,0.352
COc1ccc(C2CC(=NOC(=O)c3cc(OC)c(OC)c(OC)c3)CC(c3ccc(OC)cc3)N2C)cc1 (configuration not stated),2 mm,3 mm,3 mm,4 mm,5 mm,0.232,93 µM,3 mm,5 mm,5 mm,71 µM,3 mm,3 mm,3 mm,2 mm,0.286
COc1ccc(C2CC(=NOC(=O)c3ccccc3O)CC(c3ccc(OC)cc3)N2C)cc1 (configuration not stated),3 mm,3 mm,6 mm,5 mm,4 mm,0.272,29 µM,4 mm,5 mm,4 mm,19 µM,2 mm,3 mm,2 mm,3 mm,0.33
COc1ccc(C2CC(=NOC(=O)c3ccc(O)cc3)CC(c3ccc(OC)cc3)N2C)cc1 (configuration not stated),1 mm,2 mm,2 mm,4 mm,3 mm,0.293,25 µM,3 mm,2 mm,5 mm,15 µM,1 mm,3 mm,2 mm,0 mm,0.333
COc1ccc(C2CC(=NOC(=O)c3cc([N+](=O)[O-])cc([N+](=O)[O-])c3)CC(c3ccc(OC)cc3)N2C)cc1 (configuration not stated),5 mm,6 mm,8 mm,9 mm,9 mm,0.145,312 µM,3 mm,5 mm,6 mm,125 µM,3 mm,4 mm,3 mm,4 mm,0.195
COc1ccc(C2CC(=NOC(=O)c3ccccc3)CC(c3ccc(OC)cc3)N2C)cc1 (configuration not stated),1 mm,1 mm,3 mm,2 mm,2 mm,0.111,375 µM,2 mm,2 mm,3 mm,152 µM,1 mm,1 mm,2 mm,1 mm,0.132
COc1ccc(C2CC(=NOC(=O)c3cc(O)c(O)c(O)c3)CC(c3ccc(OC)cc3)N2C)cc1 (configuration not stated),2 mm,3 mm,8 mm,6 mm,4 mm,0.361,18 µM,3 mm,3 mm,5 mm,11 µM,1 mm,4 mm,6 mm,3 mm,0.373
COc1ccc(C2CC(=NOC(=O)c3cccc(O)c3)CC(c3ccc(OC)cc3)N2C)cc1 (configuration not stated),0 mm,3 mm,3 mm,6 mm,5 mm,0.265,34 µM,4 mm,1 mm,6 mm,21 µM,0 mm,5 mm,1 mm,1 mm,0.321
COc1ccc(C2CC(=NOC(=O)c3ccc(C)cc3)CC(c3ccc(OC)cc3)N2C)cc1 (configuration not stated),2 mm,2 mm,2 mm,3 mm,2 mm,0.127,368 µM,1 mm,1 mm,3 mm,143 µM,1 mm,1 mm,1 mm,2 mm,0.154
COc1ccc(C2CC(=NO)CC(c3ccc(OC)cc3)N2C)cc1 (configuration not stated),1 mm,0 mm,1 mm,1 mm,1 mm,0.164,380 µM,0 mm,1 mm,1 mm,165 µM,0 mm,0 mm,1 mm,1 mm,0.127
CN[C@@H]1[C@H](O[C@H]2[C@H](O[C@H]3[C@H](O)[C@@H](O)[C@H](N=C(N)N)[C@@H](O)[C@@H]3N=C(N)N)O[C@@H](C)[C@]2(O)C=O)O[C@@H](CO)[C@H](O)[C@H]1O [STREPTOMYCIN],–,13 mm,–,16 mm,16 mm,–,–,10 mm,–,15 mm,–,–,10 mm,–,–,–
OC(Cn1cncn1)(Cn1cncn1)c1ccc(F)cc1F [FLUCONAZOLE],15 mm,–,22 mm,–,–,–,–,–,17 mm,–,–,11 mm,–,20 mm,13 mm,–
